Like-named read-outs stand apart in the source and are kept apart here.
Assays:
[1] = Draves wetting test (ASTM D2281-68); format: physicochemical
Experimental: The Draves wetting test was performed according to ASTM […]-68. 500 mL of surfactant solution was poured into a 500 mL graduated cylinder (38 cm in height), and a 5.0 g standard skein hooked with a lead anchor was dropped into the solution. The skein floats in the solution initially and sinks when wetted, and the time taken was recorded as the time of wetting.

[2] = Water solubility assessed visually at room temperature; format: physicochemical; details: in water, visual assessment
Experimental: Dowex MAC-3 resin (proton form) was swollen and neutralized with excess NaOH/water solution, and then assembled into a column. After the resin was balanced with 2 column volumes of 30 vol % water in ethanol, 1 column volume of a 0.1 g/mL acid in 30 vol % water in ethanol solution was loaded and incubated in the column for 10 min. Subsequently, the resin was rinsed with 2 column volumes of 30 vol % water in ethanol, and the eluent was collected. The pH of the 1 wt % solutions/suspensions of the solids increased from 4 to 8 after passing through the column. The solvent was then evaporated under vacuum at mild heat (40° C.) to provide the sodium carboxylate salts. The sodium salts were fully soluble in water (deionized with 18MΩ resistivity), while the starting carboxylic acids were insoluble. The solubility of the surfactants in water was assessed visually at room temperature. The mixture at each concentration was examined after at least 10 min of mild shaking and ultrasonic bath agitation to see if the surfactant completely dissolved. […] Surface tension was determined with a Wilhelmy Plate tensiometer (Cahn DCA-322) at room temperature. Glass slides manufactured by Corning with a width of 22 mm and thickness of 0.1 mm were used as probes. The motor speed was set to be 100 μm/sec. The CMC was determined from the break point of Υvs. log C diagram with a custom Microsoft Visual Basic program.

[3] = Surface tension by Wilhelmy plate tensiometer; CMC from break point of surface tension vs. log C; format: physicochemical; details: room temperature
Experimental: The solubility of the surfactants in water was assessed visually at room temperature. The mixture at each concentration was examined after at least 10 min of mild shaking and ultrasonic bath agitation to see if the surfactant completely dissolved. […] Surface tension was determined with a Wilhelmy Plate tensiometer (Cahn DCA-322) at room temperature. Glass slides manufactured by Corning with a width of 22 mm and thickness of 0.1 mm were used as probes. The motor speed was set to be 100 μm/sec. The CMC was determined from the break point of Υvs. log C diagram with a custom Microsoft Visual Basic program.

[4] = Hardness (calcium chloride) tolerance; format: physicochemical; details: for CaCl2 Tolerance / Hardness Tolerance: CaCl2 added, cooled to 4° C., heated to 25° C., visual
Experimental: The Krafft temperature of the surfactant with the concentration at the room temperature CMC was determined by cooling the solution to 4° C. and then raising the temperature by 1° C. steps and visually inspecting its phase behavior after the solution reached thermal equilibrium. For hardness tolerance, a known amount of calcium chloride was added to the solution prior to cooling to 4° C.

[5] = Ross-Miles foam test (ASTM D1173-07); format: physicochemical; details: 1 wt % solution
Experimental: The Ross-Miles foam test was performed according to the test protocol described in ASTM D1173-07. […] 50 mL of each surfactant solution (1 wt %) was carefully poured into the 1 meter glass column, without creating any foam, which is called the receiver. A 200 mL pipette with the surfactant solution is placed 90 cm above the receiver and the solution is allowed to drop into the foam receiver. The height of the foam produced is measured immediately and after 5 minutes.

[6] = Krafft temperature determination; format: physicochemical; details: within 48 hours
Experimental: […] the solution to 4° C. and then raising the temperature by 1° C. steps and visually inspecting its phase behavior after the solution reached thermal equilibrium. For hardness tolerance, a known amount of calcium chloride was added to the solution prior to cooling to 4° C.

[7] = literature value (footnotes a, b); cited from earlier work
[8] = cited from earlier work; for CMC/C20: literature value (footnotes b, d)
[9] = literature value (footnote c); cited from earlier work
[10] = literature value (footnotes a, c); cited from earlier work

With `CCCCCCCCCCCC(=O)OC(CCSC)C(=O)[O-].[Na+]` (centres unmarked) [C12ESCOONa] as the compound, how does the “Draves wetting time of 0.1 wt % solution” value [1] read?
The value was 11 s.

And the “Draves wetting performance compared with references” value ([1]; 0.1 wt % solutions)?
The value was “outperformed NaL in wetting time with a comparable performance to SDS”.

What about the “Water Solubility” value [2] of the same compound?
The value was 282 mM.

And the CMC [3]?
The CMC was 1.0 mM.

And the CMC/C20 [3]?
The CMC/C20 was 5.55.

And the pC20 [3]?
Its pC20 is 3.84.

What about the “ΥCMC (surface tension at CMC)” value [3] of the same compound?
The value was 35 mN/m.

What about the “CaCl2 Tolerance” value [4] of the same compound?
The value was 100 µM.

And the “Hardness Tolerance” value [4]?
Its value is 10 ppm as CaCO3.

What about the “Calcium tolerance relative to the linear carboxylate (NaL)” value ([4]; versus NaL) of the same compound?
The value was “approximately 2.5 orders of magnitude”.

What about the “Calcium tolerance relative to the linear sulfate SDS” value ([4]; versus SDS) of the same compound?
The value was “about half an order of magnitude better”.

What about the Foam dissipation ([5]; foam height immediately and after 5 minutes) of the same compound?
Its Foam dissipation is “dissipates much faster”.

And the Foam height ([5]; versus SDS, SDBS, AES)?
Its Foam height is “comparable to the reference anionic surfactants”.

What about the “Precipitation of 1 wt % solution in 4° C. water bath” value (from here on “Precipitation of 1 wt % solution”) [6] of the same compound?
Its value is “did not show precipitation”.

For `CCCCCCCCCCCC(=O)OC(CC[S+](C)[O-])C(=O)[O-].[Na+]` (centres unmarked) [C12ESOCOONa], which “Water Solubility” value [2] is on record?
Its value is >1000^ mM.

And the CMC [3]?
The CMC was 1.7 mM.

And the CMC/C20 [3]?
Its CMC/C20 is 3.15.

What about the pC20 [3] of the same compound?
The pC20 was 3.27.

What about the “ΥCMC (surface tension at CMC)” value [3] of the same compound?
The value was 40 mN/m.

What about the “CaCl2 Tolerance” value [4] of the same compound?
The value was 5000 µM.

What about the “Hardness Tolerance” value [4] of the same compound?
Its value is 500 ppm as CaCO3.

What about the Hardness tolerance (of CaCl2) ([4]; text of b163) of the same compound?
The Hardness tolerance (of CaCl2) was 5000 µM.

What about the “Hardness tolerance relative to the unoxidized form” value ([4]; versus C12ESCOONa) of the same compound?
The value was 50 times.

What about the “Precipitation of 1 wt % solution” value [6] of the same compound?
Its value is “did not show precipitation”.

For `CCCCCCCCCCCCCCCC(=O)OC(CC[S+](C)[O-])C(=O)[O-].[Na+]` (centres unmarked) [C16ESOCOONa], which “Water Solubility” value [2] is on record?
Its value is 117 mM.

What about the CMC [3] of the same compound?
Its CMC is 0.54 mM.

And the CMC/C20 [3]?
Its CMC/C20 is 4.56.

And the pC20 [3]?
The pC20 was 4.07.

And the “ΥCMC (surface tension at CMC)” value [3]?
The value was 42 mN/m.

What about the “CaCl2 Tolerance” value [4] of the same compound?
Its value is 100 µM.

What about the “Hardness Tolerance” value [4] of the same compound?
The value was 10 ppm as CaCO3.

What about the “Precipitation of 1 wt % solution” value [6] of the same compound?
The value was “did not show precipitation”.

With `CCCCCCCCCCCC(=O)[O-].[Na+]` [NaL, sodium laurate, reference compound] as the compound, how does the “Krafft Point” value [7] read?
Its value is 13^a ° C.

And the “Draves wetting time of 0.1 wt % solution” value [1]?
Its value is 52 s.

And the solubility ([2]; thermodynamic from solid)?
The solubility was 90 mM.

And the CMC [3]?
Its CMC is 19.1 mM.

And the pC20 [3]?
The pC20 was 3.32.

What about the “ΥCMC (surface tension at CMC)” value [3] of the same compound?
Its value is 30 mN/m.

What about the “CaCl2 Tolerance” value [4] of the same compound?
Its value is 0.5 µM.

What about the “Hardness Tolerance” value [4] of the same compound?
Its value is 0.05 ppm as CaCO3.

And the CMC/C20 [8]?
Its CMC/C20 is 38.5^b.

Which “Draves wetting time of 0.1 wt % solution” value [1] does the source give for `CCCCCCCCCCCCOS(=O)(=O)[O-].[Na+]` [SDS, sodium dodecyl sulfate] here?
The value was 11 s.

And the CMC ([8]; literature value (footnote d))?
Its CMC is 12.4^d mM.

And the pC20 ([8]; literature value (footnote d))?
Its pC20 is 2.36^d.

And the “ΥCMC (surface tension at CMC)” value ([8]; literature value (footnote d))?
The value was 40^d mN/m.

What about the CMC/C20 [8] of the same compound?
The CMC/C20 was 2.6^d.

What about the “CaCl2 Tolerance” value [9] of the same compound?
Its value is 40^c μM.

What about the “Hardness Tolerance” value [9] of the same compound?
The value was 4^c ppm as CaCO3.

With “sodium dodecylbenzene sulfonate [SDBS, reference compound]” as the compound, how does the “Water Solubility” value [10] read?
The value was 575^a mM.

What about the CMC [3] of the same compound?
Its CMC is 3.1 mM.

And the CMC/C20 [3]?
The CMC/C20 was 5.30.

What about the pC20 [3] of the same compound?
Its pC20 is 3.24.

What about the “ΥCMC (surface tension at CMC)” value [3] of the same compound?
Its value is 34 mN/m.

From patent publication US10329518B2, “Anionic surfactants” (Novus International Inc., priority 2015, dated 2019)
